Test: Western blot analysis for "B" compounds
Format: cell-based
Details: read-out: Traditional Western Degradation Potency (DC50)
Method in brief: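 Target protein levels given as relative mean band intensity over GAPDH from scanned immunoblots. Lysates of treated cells in RIPA buffer, equalized by BCA, separated on 10% gels and transferred to PVDF.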

Row | Structure (SMILES) | DC50
1 | O=C1CCC(N2Cc3cc4c(cc3C2=O)CN(C(=O)C2CCC(N3CC(Oc5ccc([C@@H]6c7ccc(O)cc7CC[C@@H]6c6ccccc6)cc5)C3)CC2)C4)C(=O)N1 (stereo partly drawn) [Compound B106, 3-(6-((1R,4r)-4-(3-(4-((1R,2S)-6-hydroxy-2-phenyl-1,2,3,4-tetrahydronaphthalen-1-yl)phenoxy)azetidin-1-yl)cyclohexane-1-carbonyl)-1-oxo-3,5,6,7-tetrahydropyrrolo[3,4-f]isoindol-2(1H)-yl)piperidine-2,6-dione] | < 10 nM
2 | O=C1CCC(N2Cc3cc4c(cc3C2=O)CN(C(=O)C2CCC(N3CC(Oc5ccc([C@@H]6c7ccc(O)cc7CC[C@@H]6c6ccccc6)cc5)C3)CC2)C4)C(=O)N1 (stereo partly drawn) [Compound B107, 3-(6-((1S,4s)-4-(3-(4-((1R,2S)-6-hydroxy-2-phenyl-1,2,3,4-tetrahydronaphthalen-1-yl)phenoxy)azetidin-1-yl)cyclohexane-1-carbonyl)-1-oxo-3,5,6,7-tetrahydropyrrolo[3,4-f]isoindol-2(1H)-yl)piperidine-2,6-dione] | > 100 nM
3 | O=C1CCC(N2C(=O)c3cc4c(cc3C2=O)CN(Cc2ccc(N3CC(Nc5ccc([C@@H]6c7ccc(O)cc7CC[C@@H]6c6ccccc6)cc5)C3)nc2)C4)C(=O)N1 (stereo partly drawn) [Compound B117, 2-(2,6-dioxopiperidin-3-yl)-6-((6-(3-((4-((1R,2S)-6-hydroxy-2-phenyl-1,2,3,4-tetrahydronaphthalen-1-yl)phenyl)amino)azetidin-1-yl)pyridin-3-yl)methyl)-6,7-dihydropyrrolo[3,4-f]isoindole-1,3(2H,5H)-dione] | > 100 nM
4 | O=C1CCC(N2C(=O)c3cc4c(cc3C2=O)CN(C[C@H]2CC[C@H](N3CC(Nc5ccc([C@@H]6c7ccc(O)cc7CC[C@@H]6c6ccccc6)cc5)C3)CC2)C4)C(=O)N1 (stereo partly drawn) [Compound B118, 2-(2,6-dioxopiperidin-3-yl)-6-(((1R,4r)-4-(3-((4-((1R,2S)-6-hydroxy-2-phenyl-1,2,3,4-tetrahydronaphthalen-1-yl)phenyl)amino)azetidin-1-yl)cyclohexyl)methyl)-6,7-dihydropyrrolo[3,4-f]isoindole-1,3(2H,5H)-dione] | > 100 nM
5 | O=C1CCC(N2C(=O)c3cc4c(cc3C2=O)CN(C[C@H]2CC[C@@H](N3CC(Nc5ccc([C@@H]6c7ccc(O)cc7CC[C@@H]6c6ccccc6)cc5)C3)CC2)C4)C(=O)N1 (stereo partly drawn) [Compound B119, 2-(2,6-dioxopiperidin-3-yl)-6-(((1S,4s)-4-(3-((4-((1R,2S)-6-hydroxy-2-phenyl-1,2,3,4-tetrahydronaphthalen-1-yl)phenyl)amino)azetidin-1-yl)cyclohexyl)methyl)-6,7-dihydropyrrolo[3,4-f]isoindole-1,3(2H,5H)-dione] | > 100 nM
6 | O=C1CCC(N2C(=O)c3cc4c(cc3C2=O)CN(CC(=O)N2CCC(C(=O)N3CC(Oc5ccc([C@@H]6c7ccc(O)cc7CC[C@@H]6c6ccccc6)cc5)C3)CC2)C4)C(=O)N1 (stereo partly drawn) [Compound B120, 2-(2,6-dioxopiperidin-3-yl)-6-(2-(4-(3-(4-((1R,2S)-6-hydroxy-2-phenyl-1,2,3,4-tetrahydronaphthalen-1-yl)phenoxy)azetidine-1-carbonyl)piperidin-1-yl)-2-oxoethyl)-6,7-dihydropyrrolo[3,4-f]isoindole-1,3(2H,5H)-dione] | > 100 nM
7 | O=C1CCC(N2C(=O)c3cc4c(cc3C2=O)CN([C@H]2CC[C@H](C(=O)N3CC(Nc5ccc([C@@H]6c7ccc(O)cc7CC[C@@H]6c6ccccc6)cc5)C3)CC2)C4)C(=O)N1 (stereo partly drawn) [Compound B124, 2-(2,6-dioxopiperidin-3-yl)-6-((1S,4r)-4-(3-((4-((1R,2S)-6-hydroxy-2-phenyl-1,2,3,4-tetrahydronaphthalen-1-yl)phenyl)amino)azetidine-1-carbonyl)cyclohexyl)-6,7-dihydropyrrolo[3,4-f]isoindole-1,3(2H,5H)-dione] | > 100 nM
8 | O=C1CCC(N2C(=O)c3cc4c(cc3C2=O)CN(C(=O)[C@H]2CC[C@H](N3CC(Oc5ccc([C@@H]6c7ccc(O)cc7CC[C@@H]6c6ccccc6)cc5)C3)CC2)C4)C(=O)N1 (stereo partly drawn) [Compound B127, 2-(2,6-dioxopiperidin-3-yl)-6-((1S,4r)-4-(3-(4-((1R,2S)-6-hydroxy-2-phenyl-1,2,3,4-tetrahydronaphthalen-1-yl)phenoxy)azetidin-1-yl)cyclohexane-1-carbonyl)-6,7-dihydropyrrolo[3,4-f]isoindole-1,3(2H,5H)-dione] | > 100 nM

Next, values leading:

Row | DC50 | Structure (SMILES)
9 | 10 to 100 nM | O=C1CCC(N2Cc3cc4c(cc3C2=O)CN(C(=O)C2CCC(NC3CN(c5ccc([C@@H]6c7ccc(O)cc7CC[C@@H]6c6ccccc6)cc5)C3)CC2)C4)C(=O)N1 (stereo partly drawn) [Compound B108, 3-(6-(4-((1-(4-((1R,2S)-6-hydroxy-2-phenyl-1,2,3,4-tetrahydronaphthalen-1-yl)phenyl)azetidin-3-yl)amino)cyclohexane-1-carbonyl)-1-oxo-3,5,6,7-tetrahydropyrrolo[3,4-f]isoindol-2(1H)-yl)piperidine-2,6-dione]
10 | > 100 nM | CN(C1CCN(c2ccc([C@@H]3c4ccc(O)cc4CC[C@@H]3c3ccccc3)cc2)CC1)C1CC(C(=O)N2Cc3cc4c(cc3C2)C(=O)N(C2CCC(=O)NC2=O)C4=O)C1 (stereo partly drawn) [Compound B111, 2-(2,6-dioxopiperidin-3-yl)-6-(3-((1-(4-((1R,2S)-6-hydroxy-2-phenyl-1,2,3,4-tetrahydronaphthalen-1-yl)phenyl)piperidin-4-yl)(methyl)amino)cyclobutane-1-carbonyl)-6,7-dihydropyrrolo[3,4-f]isoindole-1,3(2H,5H)-dione]
11 | < 10 nM | O=C1CCC(N2C(=O)c3cc4c(cc3C2=O)CN(C(=O)[C@H]2CC[C@H](CN3CC(Nc5ccc([C@@H]6c7ccc(O)cc7CC[C@@H]6c6ccccc6)cc5)C3)CC2)C4)C(=O)N1 (stereo partly drawn) [Compound B112, 2-(2,6-dioxopiperidin-3-yl)-6-((1R,4r)-4-((3-((4-((1R,2S)-6-hydroxy-2-phenyl-1,2,3,4-tetrahydronaphthalen-1-yl)phenyl)amino)azetidin-1-yl)methyl)cyclohexane-1-carbonyl)-6,7-dihydropyrrolo[3,4-f]isoindole-1,3(2H,5H)-dione]
12 | > 100 nM | O=C1CCC(N2C(=O)c3cc4c(cc3C2=O)CN(C(=O)C2CCC(CN3CCN(c5ccc([C@@H]6c7ccc(O)cc7CC[C@@H]6c6ccccc6)cc5)CC3)CC2)C4)C(=O)N1 (stereo partly drawn) [Compound B114, 2-(2,6-dioxopiperidin-3-yl)-6-(4-((4-(4-((1R,2S)-6-hydroxy-2-phenyl-1,2,3,4-tetrahydronaphthalen-1-yl)phenyl)piperazin-1-yl)methyl)cyclohexane-1-carbonyl)-6,7-dihydropyrrolo[3,4-f]isoindole-1,3(2H,5H)-dione]
13 | 10 to 100 nM | O=C1CCC(N2C(=O)c3cc4c(cc3C2=O)CN(CC(=O)N2CCC(N3CC(Oc5ccc([C@@H]6c7ccc(O)cc7CC[C@@H]6c6ccccc6)cc5)C3)CC2)C4)C(=O)N1 (stereo partly drawn) [Compound B121, 2-(2,6-dioxopiperidin-3-yl)-6-(2-(4-(3-(4-((1R,2S)-6-hydroxy-2-phenyl-1,2,3,4-tetrahydronaphthalen-1-yl)phenoxy)azetidin-1-yl)piperidin-1-yl)-2-oxoethyl)-6,7-dihydropyrrolo[3,4-f]isoindole-1,3(2H,5H)-dione]
14 | 10 to 100 nM | O=C1CCC(N2C(=O)c3cc4c(cc3C2=O)CN([C@H]2CC[C@H](C(=O)N3CC(Oc5ccc([C@@H]6c7ccc(O)cc7CC[C@@H]6c6ccccc6)cc5)C3)CC2)C4)C(=O)N1 (stereo partly drawn) [Compound B122, 2-(2,6-dioxopiperidin-3-yl)-6-((1S,4r)-4-(3-(4-((1R,2S)-6-hydroxy-2-phenyl-1,2,3,4-tctrahydronaphthalcn-1-yl)phenoxy)azetidine-1-carbonyl)cyclohexyl)-6,7-dihydropyrrolo[3,4-f]isoindole-1,3(2H,5H)-dione]
15 | < 10 nM | O=C1CCC(N2C(=O)c3cc4c(cc3C2=O)CN([C@H]2CC[C@@H](C(=O)N3CC(Oc5ccc([C@@H]6c7ccc(O)cc7CC[C@@H]6c6ccccc6)cc5)C3)CC2)C4)C(=O)N1 (stereo partly drawn) [Compound B123, 2-(2,6-dioxopiperidin-3-yl)-6-((1R,4s)-4-(3-(4-((1R,2S)-6-hydroxy-2-phenyl-1,2,3,4-tetrahydronaphthalen-1-yl)phenoxy)azetidine-1-carbonyl)cyclohexyl)-6,7-dihydropyrrolo[3,4-f]isoindole-1,3(2H,5H)-dione]
16 | < 10 nM | O=C1CCC(N2C(=O)c3cc4c(cc3C2=O)CN([C@H]2CC[C@@H](C(=O)N3CC(Nc5ccc([C@@H]6c7ccc(O)cc7CC[C@@H]6c6ccccc6)cc5)C3)CC2)C4)C(=O)N1 (stereo partly drawn) [Compound B125, 2-(2,6-dioxopiperidin-3-yl)-6-((1R,4s)-4-(3-((4-((1R,2S)-6-hydroxy-2-phenyl-1,2,3,4-tetrahydronaphthalen-1-yl)phenyl)amino)azetidine-1-carbonyl)cyclohexyl)-6,7-dihydropyrrolo[3,4-f]isoindole-1,3(2H,5H)-dione]
17 | 10 to 100 nM | O=C1CCC(N2C(=O)c3cc4c(cc3C2=O)CN(C(=O)[C@H]2CC[C@@H](N3CC(Oc5ccc([C@@H]6c7ccc(O)cc7CC[C@@H]6c6ccccc6)cc5)C3)CC2)C4)C(=O)N1 (stereo partly drawn) [Compound B126, 2-(2,6-dioxopiperidin-3-yl)-6-((1R,4s)-4-(3-(4-((1R,2S)-6-hydroxy-2-phenyl-1,2,3,4-tetrahydronaphthalen-1-yl)phenoxy)azetidin-1-yl)cyclohexane-1-carbonyl)-6,7-dihydropyrrolo[3,4-f]isoindole-1,3(2H,5H)-dione]
18 | 10 to 100 nM | O=C1CCC(N2C(=O)c3cc4c(cc3C2=O)CN(C(=O)[C@H]2CC[C@H](N3CC(Nc5ccc([C@@H]6c7ccc(O)cc7CC[C@@H]6c6ccccc6)cc5)C3)CC2)C4)C(=O)N1 (stereo partly drawn) [Compound B128, 2-(2,6-dioxopiperidin-3-yl)-6-((1S,4r)-4-(3-((4-((1R,2S)-6-hydroxy-2-phenyl-1,2,3,4-tetrahydronaphthalen-1-yl)phenyl)amino)azetidin-1-yl)cyclohexane-1-carbonyl)-6,7-dihydropyrrolo[3,4-f]isoindole-1,3(2H,5H)-dione]

From US20260028354A1, “TETRAHYDRONAPHTHALENE DERIVATIVES AS ESTROGEN RECEPTOR DEGRADERS” (REGENT OF THE UNIVERSITY OF MICHIGAN, priority 2022, published 2026)
